Values joined by “and” are separate entries in the source; they are usually repeats but may differ in a detail not shown here. Identical values can stand only once. Inconclusive results and toxic doses are left out. Rule for the calls: active = survival T/C of 150% or more; inactive = T/C below 125% in these data.
Tested on: P388 leukemia ip, CD2F1 mice, survival T/C
Assay: NCI In Vivo Anticancer Drug Screen. Data for tumor model P388 Leukemia (intraperitoneal) in CD2F1 (CDF1) mice
Conditions: endpoint: median survival time, higher = longer survival
How it was run: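 Mice carrying the transplanted tumor received test compound or vehicle. Survival was recorded in each group, and the value is the treated-group measurement divided by that of the vehicle-treated control group.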

[1] = dose: 50.0 mg/kg/injection, schedule: Q01DX009 (ip), vehicle: Klucel (hydroxypropylcellulose) (HPC)
[2] = dose: 100.0 mg/kg/injection, schedule: Q01DX009 (ip), vehicle: Klucel (hydroxypropylcellulose) (HPC)
[3] = dose: 200.0 mg/kg/injection, schedule: Q01DX009 (ip), vehicle: Klucel (hydroxypropylcellulose) (HPC)
[4] = dose: 12.5 mg/kg/injection, schedule: Q01DX009 (ip), vehicle: saline
[5] = dose: 25.0 mg/kg/injection, schedule: Q01DX009 (ip), vehicle: saline
[6] = dose: 100.0 mg/kg/injection, schedule: Q01DX009 (ip), vehicle: saline
[7] = dose: 50.0 mg/kg/injection, schedule: Q01DX009 (ip), vehicle: saline

Measured: T/C

COc1ccc2nc(-c3ccccn3)ccc2c1
inactive: dose: 25.0 mg/kg/injection, schedule: Q01DX009 (ip), vehicle: distilled water + Tween-80 106 % of control | dose: 50.0 mg/kg/injection, schedule: Q01DX009 (ip), vehicle: distilled water + Tween-80 106 % of control | dose: 100.0 mg/kg/injection, schedule: Q01DX009 (ip), vehicle: distilled water + Tween-80 101 % of control | dose: 200.0 mg/kg/injection, schedule: Q01DX009 (ip), vehicle: distilled water + Tween-80 93 % of control | dose: 400.0 mg/kg/injection, schedule: Q01DX009 (ip), vehicle: distilled water + Tween-80 92 % of control

CCOc1c(N=Nc2ccc([N+](=O)[O-])cc2)c(C)nn1C(=S)SC
inactive: dose: 1.87 mg/kg/injection, schedule: Q01DX005 (ip), vehicle: Klucel (hydroxypropylcellulose) (HPC) 108 % of control | dose: 3.75 mg/kg/injection, schedule: Q01DX005 (ip), vehicle: Klucel (hydroxypropylcellulose) (HPC) 105 % of control | dose: 7.5 mg/kg/injection, schedule: Q01DX005 (ip), vehicle: Klucel (hydroxypropylcellulose) (HPC) 105 % of control and 89 % of control | dose: 15.0 mg/kg/injection, schedule: Q01DX005 (ip), vehicle: Klucel (hydroxypropylcellulose) (HPC) 97 % of control | dose: 60.0 mg/kg/injection, schedule: Q01DX005 (ip), vehicle: Klucel (hydroxypropylcellulose) (HPC) 90 % of control | dose: 240.0 mg/kg/injection, schedule: Q01DX005 (ip), vehicle: Klucel (hydroxypropylcellulose) (HPC) 87 % of control

CCCCC/C=C\C/C=C\CCCCCCCC(=O)O
inactive: [1] 93 % of control | [2] 112 % of control | [3] 107 % of control | dose: 400.0 mg/kg/injection, schedule: Q01DX009 (ip), vehicle: Klucel (hydroxypropylcellulose) (HPC) 101 % of control

Cn1cnc([N+](=O)[O-])c1Sc1ncn[nH]1
inactive: [4] 106 % of control | [5] 122 % of control | [6] 122 % of control | dose: 200.0 mg/kg/injection, schedule: Q01DX009 (ip), vehicle: saline 113 % of control

COc1cc2c(c(OC)c1OC)-c1ccc(OC)c(=O)cc1[C@@H](N(C)C=O)CC2
active: dose: 1.25 mg/kg/injection, schedule: Q01DX009 (ip), vehicle: Klucel (hydroxypropylcellulose) (HPC) 171 % of control

CCOC(=O)c1ccc(NC(=O)Nc2cc(Cl)ncn2)cc1
inactive: [1] 100 % of control | [2] 99 % of control | [3] 91 % of control

COc1cc2c(cc1OC)[C@H](c1cc(OC)c3c(c1)OCO3)[C@H]1C(=O)OCC1C2 (stereo partly specified)
inactive: dose: 15.0 mg/kg/injection, schedule: Q01DX005 (ip), vehicle: saline with Tween-80 89 % of control | dose: 30.0 mg/kg/injection, schedule: Q01DX005 (ip), vehicle: saline with Tween-80 88 % of control | dose: 60.0 mg/kg/injection, schedule: Q01DX005 (ip), vehicle: saline with Tween-80 90 % of control and 92 % of control | dose: 120.0 mg/kg/injection, schedule: Q01DX005 (ip), vehicle: saline with Tween-80 98 % of control | dose: 240.0 mg/kg/injection, schedule: Q01DX005 (ip), vehicle: saline with Tween-80 99 % of control

C[n+]1ccc(/C=C/c2ccccc2O)cc1
inactive: [4] 89 % of control | [5] 94 % of control | [7] 106 % of control | [6] 117 % of control

Cc1cc2c(cc1C)-c1nn(-c3ccccc3)c(-c3ccc(Cl)cc3)c1CCO2
inactive: dose: 12.5 mg/kg/injection, schedule: Q01DX005 (ip), vehicle: saline with Tween-80 92 % of control | dose: 25.0 mg/kg/injection, schedule: Q01DX005 (ip), vehicle: saline with Tween-80 99 % of control | dose: 50.0 mg/kg/injection, schedule: Q01DX005 (ip), vehicle: saline with Tween-80 93 % of control and 94 % of control

COc1cc(-c2ccc(N=Nc3c(O)ccc4ccccc34)c(OC)c2)ccc1N=Nc1ccc2c(S(=O)(=O)O)cc(S(=O)(=O)O)c(N)c2c1O
inactive: dose: 66.0 mg/kg/injection, schedule: Q01DX009 (ip), vehicle: saline 102 % of control | [6] 118 % of control | dose: 150.0 mg/kg/injection, schedule: Q01DX009 (ip), vehicle: saline 114 % of control

CC(=Nc1cc(Cl)ccc1O)C1=C(O)c2ccccc2C1=O
inactive: dose: 50.0 mg/kg/injection, schedule: Q04DX002 (ip), vehicle: saline with Tween-80 94 % of control | dose: 100.0 mg/kg/injection, schedule: Q04DX002 (ip), vehicle: saline with Tween-80 97 % of control | dose: 200.0 mg/kg/injection, schedule: Q04DX002 (ip), vehicle: saline with Tween-80 97 % of control

CC(C)(C)c1cc(C(C)(C)C)c2oc(C(=O)O)cc(=O)c2c1
inactive: [7] 95 % of control | [6] 97 % of control

Clc1ccc2c(Cl)ncnc2c1
inactive: dose: 50.0 mg/kg/injection, schedule: Q01DX009 (ip), vehicle: saline with Tween-80 104 % of control | dose: 100.0 mg/kg/injection, schedule: Q01DX009 (ip), vehicle: saline with Tween-80 100 % of control | dose: 200.0 mg/kg/injection, schedule: Q01DX009 (ip), vehicle: saline with Tween-80 90 % of control

Source: PubChem BioAssay AID330 (DTP/NCI, 2004)
